Measurements taken from US10434132B2, “Galactolipids-enriched plant extracts and the uses thereof” (ACADEMIA SINICA, priority 2013, dated 2019).

Columns and labels:
[1] = test system: LPS/D-GaIN-challenged mice; experiment: LPS/D-GaIN-induced acute fulminant hepatitis in mice; type: in vivo
Method: The hepatoprotective effect in live body of compound dLGG isolated from Crassocephalum rabens (Asteraceae) in LPS/D-GaIN-induced fulminant hepatitis were investigated and compared with the hepatoprotective drug, silymarin (SM). Mice were randomly separated into four groups (n=6 per group) for treatments: vehicle; LPS/D-GaIN; 50 mg/kg of silymarin (Post-SM50); and 10 mg/kg dLGG (post-dLGG10), and all treatments were given intraperitoneally. One hour after the mice treated with 500 ng LPS and 250 μL saline containing 25 mg D-GaIN (Huang et al., 2012), the dLGG and silymarin were given intraperitoneally. Besides, the other two groups of mice were treated dLGG or silymarin continuously for three days to perform the protection effect of dLGG against LPS/D-GaIN induced fulminate hepatitis. Eight hours after LPS/D-GaIN injection, blood samples were collected through retro-orbital bleeding, and then all mice were sacrificed to collect blood samples and liver tissues.
(§1) Liver, lung and kidney tissues were fixed in 10% buffered formalin then it were embedded into paraffin. The paraffin-embedded tissues were sliced (8-μm) and stained by hematoxylin and eosin (H&E). Besides, sections of paraffin-embedded liver and lung (4-μm for thickness) were heat immobilized and deparaffinized by use of xylene and rehydrated in a graded series of ethanol with a final wash in distilled water, and finally soaked into decloaking chamber (Biocare Medical) containing Target Retrieval Solution (DakoCytomation) for antigen retrieval.
In situ detection of apoptotic cells was conducted according to the manufacturer's protocol (Chemicon). It is using terminal deoxynucleotidyl transferase to work on nucleotide sequence to […] for terminal deoxynucleotidyl transferase-mediated dUTP nick end labeling. Finally, AxioVision software (Carl Zeiss MicroImaging, Inc.) was used to analyze the number of TUNEL-positive cells.
(§2) Blood samples of tested mice were centrifuged under 4° C., 1400× g for 15 minutes to separate serum from blood. Commercial kit purchased from Randox Laboratories (UK) was used to determine the activity of aspartate aminotransferase (AST) and alanine aminotransferase (ALT) in serum supernatants.

[2] = dLGG only treatment of mice without LPS challenge; type: in vivo; conditions: dLGG 25 mg/kg only, no LPS, 24 hours
Method: (§3) The plant components or the drugs were all injected an hour before administration of LPS. Another animal group was only treated with 25 mg/kg dLGG (dLGG 25 only). All groups were sacrificed after 24 hours and blood samples were collected by retro-orbital bleeding before scarification of mice and organ tissues were collected immediately.
Moreover, one group of mice was treated with dLGG (25 mg/kg) without LPS challenge. All the mice were sacrificed after 24 hours. Mice sera were collected to measure and compare the concentration of IL-6 and TNF-α, and the levels of AST and ALT.

[3] = test system: hypoxia inducible factor-1α (HIF-1α); experiment: HIF-1α expression in LPS-challenged mice; type: in vivo; conditions: FIG. 9A, 9C; pre-treatment before LPS
Method: as §3

B16 melanoma cells = experiment: Depigmentation assay in B16 melanoma cells; type: cell-based; conditions: FIG. 10B; 45 μM, vs vehicle control
Method: B16 melanoma cell line was obtained from ATCC (Manassas, Va.) and grown in RPMI medium 1640 (Gibco/BRL) supplemented with 10% heat-inactivated fetal bovine serum, 100 unit/mL penicillin and 100 μg/mL streptomycin, at 37° C. in a humidified 5% CO2 incubator.
B16 melanoma cell line was plated on to 10 cm culture dishes at an initial density of 1×10^5 cells dish^−1 and then cultured under the same condition described above. After 12 hours of seeding, the cells were treated by vehicle DMSO, kojic acid (KA), ethyl acetate (EA) fractions of CR's water and ethanolic extractions (Hou et al., 2007) for 72 hours. These cells were harvested by centrifuge and visually evaluated the color of these cell pellets. In another experiment, depigmentation effect of the single compound dLGG was observed and evaluated at different time points with the same procedure.

LPS-challenged mice = experiment: LPS-induced acute inflammation and sepsis in mice; type: in vivo
Method: as §3, §1
Immunohistochemistry with liver, lung and kidney tissues were done by incubating the samples into F4/80 primary antibody for overnight respectively. After subsequent washing, each of the samples was incubated using florescent-labeled secondary antibody. Florescent images of the macrophage cell infiltration (positive F4/80 stained cell) were captured by AxioVision software (Carl Zeiss MicroImaging, Inc.) and then analyzed.
as §2
Serum levels of interleukin (IL-6) and tumor necrosis factor-alpha (TNF-α) were determined using a commercial kit from eBioscience.

MITF = experiment: Western blot of MITF expression in B16 melanoma cells; type: cell-based; conditions: FIG. 10C, 45 μM dLGG
Method: (§4) The cellular proteins were produced according to previously published method (Chiang et al., 2005). Protein content was measured by Bradford method (Bio-Rad).
(§5) Molecular mechanism of dLGG depigmentation effect was further studied. Western blotting assay was preceded for testing the effect of dLGG on tyrosinase and MITF expression.

PPAR-δ = PPAR-δ expression in LPS-challenged mice; type: in vivo; conditions: FIG. 9B, 9D; pre-treatment before LPS
Method: as §3

tyrosinase = experiment: Western blot of tyrosinase expression in B16 melanoma cells; type: cell-based; conditions: FIG. 10C, 45 μM dLGG
Method: as §4, §5

[4] = FIG. 5A, dLGG 10 mg/kg or SM 50 mg/kg i.p. 1 hour after LPS/D-GaIN, blood at 8 hours
[5] = high dose (CR-EA 50 mg/kg, dLGG 25 mg/kg) 1 hour before 10 mg/kg LPS, serum at 24 hours

In the case of `CC/C=C\C/C=C\C/C=C\CCCCCCCC(=O)OC[C@H](CO[C@@H]1O[C@H](CO)[C@H](O)[C@H](O)[C@H]1O)OC(=O)CCCCCCC/C=C\C/C=C\C/C=C\CC` [dLGG, 1,2,di-O-α-linolenoyl-3-O-β-galactopyranosyl-sn-glycerol], the “serum ALT level” value [1, 4] was “significantly inhibit”, the “serum AST level” value [1, 4] was “significantly inhibit” and the “liver histology H&E (infiltration of inflammatory cells into liver lobules, tissue destruction, erythrocyte influx)” value ([1]; FIG. 5B, dLGG 10 mg/kg or SM 50 mg/kg i.p. 1 hour after LPS/D-GaIN) was “attenuated”. For the same compound, the “numbers of apoptosis cells, TUNEL positive-stained cells in liver tissue” value ([1]; FIG. 5C, dLGG 10 mg/kg i.p. after LPS/D-GaIN) was “significantly decreased”, the “protection against LPS/D-GaIN-induced fulminant hepatic failure” value ([1]; pre-treated 1 or 10 mg/kg 1 hour before LPS/D-GaIN-challenge, data not shown) was “significant protection effect” and the harm to mice [2] was “harmfulless to mice”. For the same compound, the HIF-1α expression [3] was “down-regulated”, the “depigmentation of B16 melanoma cells at different time points” value (B16 melanoma cells) was “significantly depigmentation in a time-dependent manner” and the “sepsis-induced acute kidney injury, renal histology (H&E)” value (LPS-challenged mice; FIG. 8A, pre-treated 1 hour before LPS, simvastatin 10 mg/kg) was “remarkably protective effect”. The “infiltration and activation of macrophages (F4/80 immunohistology staining)” value (LPS-challenged mice; FIG. 8C, pre-treated 1 hour before LPS, simvastatin 10 mg/kg) was “decreased infiltration and activation of macrophages”, the “damages in mice liver, lung and kidney caused by LPS” value (LPS-challenged mice; dLGG 25 mg/kg after LPS-challenge, data not shown) was “effectively reduce damages” and the “serum ALT decrease” value (LPS-challenged mice; [5]) was 2.3 times. For the same compound, the “serum AST decrease” value (LPS-challenged mice; [5]) was 1.8 times, the “serum IL-6 decrease” value (LPS-challenged mice; [5]) was 3.5 times and the “serum TNF-α decrease” value (LPS-challenged mice; [5]) was 3.0 times. The “expression of MITF (western blot)” value (MITF) was “inhibit the expression”, the PPAR-δ expression (PPAR-δ) was “down-regulated” and the “expression of tyrosinase (western blot)” value (tyrosinase) was “inhibit the expression”.
